Test results: ChEMBL document CHEMBL1201862, “PubChem BioAssay data set” (2004)
Activity calls are given as the source filed them.

Assays:
[1] = molecular target: T1, Replicative DNA helicase DnaB (Mycobacterium tuberculosis, UniProt P9WMR3); assay: DnaB intein splicing inhibitors, dose response, biochemical, cell-free fluorescence (AID 449749); type: functional
T1 sequence (P9WMR3 whole entry): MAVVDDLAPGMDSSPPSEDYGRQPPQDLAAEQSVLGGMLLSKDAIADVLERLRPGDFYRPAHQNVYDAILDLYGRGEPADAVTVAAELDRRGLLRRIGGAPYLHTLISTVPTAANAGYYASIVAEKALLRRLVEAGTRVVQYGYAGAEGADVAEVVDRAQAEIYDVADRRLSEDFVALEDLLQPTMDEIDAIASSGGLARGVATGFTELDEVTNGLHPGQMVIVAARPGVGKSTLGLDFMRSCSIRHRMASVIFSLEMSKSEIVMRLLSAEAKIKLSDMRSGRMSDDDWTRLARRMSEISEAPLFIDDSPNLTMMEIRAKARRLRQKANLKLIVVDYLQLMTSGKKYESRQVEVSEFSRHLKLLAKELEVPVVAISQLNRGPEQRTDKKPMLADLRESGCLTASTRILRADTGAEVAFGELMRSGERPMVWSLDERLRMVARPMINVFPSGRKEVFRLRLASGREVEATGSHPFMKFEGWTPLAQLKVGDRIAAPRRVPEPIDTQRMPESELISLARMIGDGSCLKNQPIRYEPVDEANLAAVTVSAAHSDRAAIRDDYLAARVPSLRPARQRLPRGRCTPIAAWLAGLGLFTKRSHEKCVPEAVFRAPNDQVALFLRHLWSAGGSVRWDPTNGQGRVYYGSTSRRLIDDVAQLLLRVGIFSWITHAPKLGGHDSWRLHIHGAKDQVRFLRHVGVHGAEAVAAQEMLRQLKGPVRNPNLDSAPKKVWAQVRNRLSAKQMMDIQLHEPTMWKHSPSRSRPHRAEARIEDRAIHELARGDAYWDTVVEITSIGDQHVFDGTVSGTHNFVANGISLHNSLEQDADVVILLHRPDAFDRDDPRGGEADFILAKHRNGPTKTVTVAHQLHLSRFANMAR

[2] = molecular target: T2, Sentrin-specific protease 8 (Homo sapiens, UniProt Q96LD8); type: functional
T2 sequence (Q96LD8 whole entry): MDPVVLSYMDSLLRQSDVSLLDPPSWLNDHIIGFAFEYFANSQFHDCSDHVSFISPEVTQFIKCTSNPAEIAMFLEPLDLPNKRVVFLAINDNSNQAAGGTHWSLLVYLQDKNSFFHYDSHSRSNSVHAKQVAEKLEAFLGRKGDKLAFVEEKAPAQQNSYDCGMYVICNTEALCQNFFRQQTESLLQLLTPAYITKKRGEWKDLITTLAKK

Protein RecA = molecular target: T3, Protein RecA (Mycobacterium tuberculosis, UniProt P9WHJ3); assay: Fluorescence Cell-Free Homogeneous Dose Retest to Identify Inhibitors of RecA-Intein Splicing Activity. [Related pubchem assays (depositor defined):AID2097, AID2223, AID489010, AID492950]; type: functional
T3 sequence (P9WHJ3 whole entry): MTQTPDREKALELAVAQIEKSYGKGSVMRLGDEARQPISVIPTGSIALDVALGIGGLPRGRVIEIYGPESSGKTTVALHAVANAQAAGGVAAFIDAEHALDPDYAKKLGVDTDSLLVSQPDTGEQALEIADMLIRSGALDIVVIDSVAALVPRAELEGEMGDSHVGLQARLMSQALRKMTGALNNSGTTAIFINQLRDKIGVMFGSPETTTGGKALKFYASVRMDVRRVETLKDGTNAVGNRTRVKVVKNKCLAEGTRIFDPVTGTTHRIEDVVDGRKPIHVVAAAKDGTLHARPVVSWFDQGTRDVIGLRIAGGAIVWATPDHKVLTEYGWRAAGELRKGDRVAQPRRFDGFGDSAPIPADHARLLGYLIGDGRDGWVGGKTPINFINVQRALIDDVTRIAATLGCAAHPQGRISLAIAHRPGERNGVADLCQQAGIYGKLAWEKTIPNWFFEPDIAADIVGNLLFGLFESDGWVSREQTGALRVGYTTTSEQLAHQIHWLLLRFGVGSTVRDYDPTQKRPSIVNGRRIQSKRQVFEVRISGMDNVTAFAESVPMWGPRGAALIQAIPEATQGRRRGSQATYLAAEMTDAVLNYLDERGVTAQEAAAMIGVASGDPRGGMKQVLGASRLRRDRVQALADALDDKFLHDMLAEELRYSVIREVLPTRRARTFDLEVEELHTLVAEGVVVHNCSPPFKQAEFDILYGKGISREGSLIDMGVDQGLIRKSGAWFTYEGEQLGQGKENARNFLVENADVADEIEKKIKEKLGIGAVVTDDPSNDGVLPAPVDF

[3] = molecular target: T2, Sentrin-specific protease 8; type: functional; remark: listed apart in the source
Cytochrome P450 2C9 = Cytochrome P450 2C9 (Homo sapiens, UniProt P11712)
Cytochrome P450 2D6 = Cytochrome P450 2D6 (Homo sapiens, UniProt P10635);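 note: CYP2D6 member of a cytochrome P450 panel assay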
[4] = molecular target: T4, Type-1 angiotensin II receptor (Homo sapiens, UniProt P30556); assay: antagonism of angiotensin II type 1 receptor – cell-based, uHTS hits, selectivity assay for APJ receptor antagonist project, dose response (AID 463214); type: functional;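 note: antagonist potency against angiotensin II stimulated AT1 response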
T4 sequence (P30556 whole entry): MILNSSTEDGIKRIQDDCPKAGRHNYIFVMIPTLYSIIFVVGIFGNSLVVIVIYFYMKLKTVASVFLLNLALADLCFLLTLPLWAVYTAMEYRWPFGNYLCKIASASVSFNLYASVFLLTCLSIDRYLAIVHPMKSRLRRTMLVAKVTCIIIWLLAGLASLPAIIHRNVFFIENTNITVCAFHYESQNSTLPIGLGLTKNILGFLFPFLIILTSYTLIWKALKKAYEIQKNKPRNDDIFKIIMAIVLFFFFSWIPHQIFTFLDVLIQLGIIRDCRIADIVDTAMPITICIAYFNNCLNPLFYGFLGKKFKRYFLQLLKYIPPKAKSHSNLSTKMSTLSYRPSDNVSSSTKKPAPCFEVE

Beta-galactosidase = Beta-galactosidase (Escherichia coli, UniProt Q8VNN2); assay: PubChem AID 485352; type: functional
[5] = molecular target: Disintegrin and metalloproteinase domain-containing protein 17 (Homo sapiens, UniProt P78536); assay: exosite inhibitors of ADAM17, dose response, biochemical (AID 743260)
[6] = inhibition of ADAM10 peptide cleavage – biochemical, FRET peptide substrate, recombinant human ADAM10, selectivity assay for ADAM17 exosite inhibitor project, dose response (AID 743259);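 note: ADAM10 enzyme cleaving a FRET peptide substrate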
[7] = NIH3T3 cell viability loss – ATP luminescence, mouse fibroblasts, counter-screen, dose response (AID 2010); type: functional, cell-based;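 note: cells exposed to compound for about 90 hours before reading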
[8] = microbe, parasite or virus in culture; type: functional; settings: Mycobacterium tuberculosis
[9] = Trypanosoma cruzi growth suppression in host cells – NIH3T3 host cells, beta-gal luminescence, confirmation (AID 2044); type: functional, cell-based;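 note: intracellular parasites grown in NIH/3T3 mouse fibroblasts as host cells; luminescent beta-galactosidase reporter signal from transgenic T. cruzi replicating inside host cells; inhibitors lower the luminescence signal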
[10] = molecular target: T5, Apoptotic protease-activating factor 1 (Homo sapiens, UniProt O14727); type: functional
T5 sequence (O14727 whole entry): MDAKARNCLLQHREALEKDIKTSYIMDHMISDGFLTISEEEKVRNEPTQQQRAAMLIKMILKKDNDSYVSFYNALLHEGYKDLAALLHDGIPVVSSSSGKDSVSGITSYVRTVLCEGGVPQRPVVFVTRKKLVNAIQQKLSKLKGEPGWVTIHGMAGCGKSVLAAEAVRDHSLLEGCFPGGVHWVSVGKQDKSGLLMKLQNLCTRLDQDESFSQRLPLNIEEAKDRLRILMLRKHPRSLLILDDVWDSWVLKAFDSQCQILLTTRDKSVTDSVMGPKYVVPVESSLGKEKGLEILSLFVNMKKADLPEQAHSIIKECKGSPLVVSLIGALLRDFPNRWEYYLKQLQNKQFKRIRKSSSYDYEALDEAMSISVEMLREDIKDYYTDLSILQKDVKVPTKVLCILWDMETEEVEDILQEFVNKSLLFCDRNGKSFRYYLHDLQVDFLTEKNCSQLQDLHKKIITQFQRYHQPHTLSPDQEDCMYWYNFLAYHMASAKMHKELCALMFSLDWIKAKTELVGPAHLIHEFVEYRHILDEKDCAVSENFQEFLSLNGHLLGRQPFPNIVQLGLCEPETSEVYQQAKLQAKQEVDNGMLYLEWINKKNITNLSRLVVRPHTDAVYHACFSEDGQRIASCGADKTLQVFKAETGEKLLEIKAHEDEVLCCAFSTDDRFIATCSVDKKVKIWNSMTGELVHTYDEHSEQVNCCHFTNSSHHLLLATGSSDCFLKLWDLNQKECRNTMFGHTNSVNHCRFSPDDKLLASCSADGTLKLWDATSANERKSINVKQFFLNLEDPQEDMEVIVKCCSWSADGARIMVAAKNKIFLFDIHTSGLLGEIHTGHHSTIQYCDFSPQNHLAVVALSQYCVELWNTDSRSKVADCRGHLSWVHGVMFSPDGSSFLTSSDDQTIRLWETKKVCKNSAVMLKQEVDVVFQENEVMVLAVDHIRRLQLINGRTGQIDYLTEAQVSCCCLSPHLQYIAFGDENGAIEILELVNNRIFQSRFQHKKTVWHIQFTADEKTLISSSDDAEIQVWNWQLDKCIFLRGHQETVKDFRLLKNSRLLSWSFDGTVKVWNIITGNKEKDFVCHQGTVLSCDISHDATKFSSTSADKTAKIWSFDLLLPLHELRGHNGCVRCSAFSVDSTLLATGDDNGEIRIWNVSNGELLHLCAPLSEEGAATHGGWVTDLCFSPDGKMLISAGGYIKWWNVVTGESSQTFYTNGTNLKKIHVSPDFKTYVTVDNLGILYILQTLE

Paired box protein Pax-8 = Paired box protein Pax-8 (Homo sapiens, UniProt Q06710); assay: PAX8 transcriptional activity inhibition in RMG-I – RMG-I cells, luciferase, cherry-pick, dose response (AID 687027); type: functional, cell-based;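 note: luciferase reporter driven by Pax8 target thyroperoxidase promoter measured by SteadyGlo luminescence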
[11] = general cell-killing toxicity readout – plate reader, dry powder samples, cytotoxicity control for PAX8 inhibitor project, dose response (AID 743021); type: functional, cell-based
[12] = blockers of HIV-1 ZM109 envelope-driven cell-cell fusion – HeLa effector, CEM target cells, luciferase, cherry-pick, dose response (AID 652058); type: functional, cell-based;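 note: luciferase signal from HIV-1 Env mediated cell-cell fusion of effector and target cells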
[13] = HIV-1 AD8 envelope cell-cell fusion blockers – cherry-pick, dose response (AID 652062); type: functional, cell-based;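 note: luciferase signal from cell-cell fusion driven by HIV-1 clade B AD8 Env; potency is for inhibitors of fusion seen as a drop in luminescence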
[14] = blockers of HIV-1 envelope-mediated cell-cell fusion – cherry-pick, dose response (AID 652057); type: functional, cell-based
[15] = IGROV1 cell killing – plate reader, dry powder samples, PAX8 inhibitor project, dose response (AID 743043); type: functional, cell-based; settings: IGROV-1
[16] = OVCAR8 cell viability loss – plate reader, dry powder samples, PAX8 project, dose response (AID 743197); type: functional, cell-based; settings: OVCAR-8
[17] = molecular target: T6, COUP transcription factor 2 (Homo sapiens, UniProt P24468); assay: Luminescence-based cell-based high throughput dose response assay to identify inhibitors of COUP-TFII (NR2F2).; type: functional;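 note: HEK293 cells transiently cotransfected with COUP-TFII expression vector and reporter; luciferase reporter luminescence driven by COUP-TFII from the pX2-168 reporter plasmid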
T6 sequence (P24468 whole entry): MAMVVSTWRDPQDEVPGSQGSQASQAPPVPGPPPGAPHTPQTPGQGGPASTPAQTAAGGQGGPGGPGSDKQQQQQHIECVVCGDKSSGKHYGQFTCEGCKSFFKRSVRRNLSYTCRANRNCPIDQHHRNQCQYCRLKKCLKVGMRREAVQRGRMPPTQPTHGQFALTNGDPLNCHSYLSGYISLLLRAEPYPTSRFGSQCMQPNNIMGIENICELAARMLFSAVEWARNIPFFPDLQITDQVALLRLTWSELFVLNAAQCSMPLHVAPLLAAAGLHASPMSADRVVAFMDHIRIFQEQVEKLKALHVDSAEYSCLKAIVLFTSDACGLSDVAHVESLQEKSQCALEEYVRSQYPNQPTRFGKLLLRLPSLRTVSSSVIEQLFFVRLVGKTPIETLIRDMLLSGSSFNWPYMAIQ

Sequence of Disintegrin and metalloproteinase domain-containing protein 17 (P78536 whole entry, the tested form may be a part): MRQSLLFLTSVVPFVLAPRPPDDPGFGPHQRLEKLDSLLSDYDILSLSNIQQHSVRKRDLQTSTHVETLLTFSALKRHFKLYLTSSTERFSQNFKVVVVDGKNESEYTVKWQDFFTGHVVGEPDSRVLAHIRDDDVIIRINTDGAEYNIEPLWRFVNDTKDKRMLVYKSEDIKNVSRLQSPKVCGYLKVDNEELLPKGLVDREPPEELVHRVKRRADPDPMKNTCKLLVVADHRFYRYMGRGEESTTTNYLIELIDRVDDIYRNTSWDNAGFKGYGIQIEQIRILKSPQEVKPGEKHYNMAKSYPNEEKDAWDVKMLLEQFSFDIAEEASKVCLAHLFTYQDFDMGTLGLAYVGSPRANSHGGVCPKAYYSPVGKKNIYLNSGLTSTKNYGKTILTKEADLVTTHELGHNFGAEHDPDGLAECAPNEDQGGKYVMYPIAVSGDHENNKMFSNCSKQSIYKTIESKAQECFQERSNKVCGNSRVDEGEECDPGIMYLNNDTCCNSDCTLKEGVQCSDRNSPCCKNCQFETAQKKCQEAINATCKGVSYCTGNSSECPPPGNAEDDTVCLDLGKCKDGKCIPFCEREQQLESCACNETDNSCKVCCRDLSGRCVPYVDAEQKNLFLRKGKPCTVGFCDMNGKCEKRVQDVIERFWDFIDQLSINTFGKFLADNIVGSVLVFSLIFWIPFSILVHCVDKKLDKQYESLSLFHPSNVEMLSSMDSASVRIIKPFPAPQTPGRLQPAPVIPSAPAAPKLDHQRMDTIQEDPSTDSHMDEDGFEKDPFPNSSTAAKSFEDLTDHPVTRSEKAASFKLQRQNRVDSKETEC
Sequence of Paired box protein Pax-8 (Q06710 whole entry): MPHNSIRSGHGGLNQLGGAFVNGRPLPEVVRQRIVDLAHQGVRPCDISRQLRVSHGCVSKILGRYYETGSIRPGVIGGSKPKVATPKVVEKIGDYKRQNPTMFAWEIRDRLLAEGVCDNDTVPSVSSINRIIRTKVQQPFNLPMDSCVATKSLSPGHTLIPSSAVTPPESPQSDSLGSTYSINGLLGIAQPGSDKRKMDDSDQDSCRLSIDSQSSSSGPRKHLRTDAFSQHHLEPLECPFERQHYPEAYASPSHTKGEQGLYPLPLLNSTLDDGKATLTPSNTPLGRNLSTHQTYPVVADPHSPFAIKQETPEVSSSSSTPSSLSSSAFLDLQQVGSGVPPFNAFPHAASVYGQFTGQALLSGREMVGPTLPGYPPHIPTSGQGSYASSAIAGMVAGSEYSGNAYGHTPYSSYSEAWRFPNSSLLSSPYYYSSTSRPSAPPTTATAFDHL
Sequence of Beta-galactosidase (Q8VNN2 whole entry, the tested form may be a part): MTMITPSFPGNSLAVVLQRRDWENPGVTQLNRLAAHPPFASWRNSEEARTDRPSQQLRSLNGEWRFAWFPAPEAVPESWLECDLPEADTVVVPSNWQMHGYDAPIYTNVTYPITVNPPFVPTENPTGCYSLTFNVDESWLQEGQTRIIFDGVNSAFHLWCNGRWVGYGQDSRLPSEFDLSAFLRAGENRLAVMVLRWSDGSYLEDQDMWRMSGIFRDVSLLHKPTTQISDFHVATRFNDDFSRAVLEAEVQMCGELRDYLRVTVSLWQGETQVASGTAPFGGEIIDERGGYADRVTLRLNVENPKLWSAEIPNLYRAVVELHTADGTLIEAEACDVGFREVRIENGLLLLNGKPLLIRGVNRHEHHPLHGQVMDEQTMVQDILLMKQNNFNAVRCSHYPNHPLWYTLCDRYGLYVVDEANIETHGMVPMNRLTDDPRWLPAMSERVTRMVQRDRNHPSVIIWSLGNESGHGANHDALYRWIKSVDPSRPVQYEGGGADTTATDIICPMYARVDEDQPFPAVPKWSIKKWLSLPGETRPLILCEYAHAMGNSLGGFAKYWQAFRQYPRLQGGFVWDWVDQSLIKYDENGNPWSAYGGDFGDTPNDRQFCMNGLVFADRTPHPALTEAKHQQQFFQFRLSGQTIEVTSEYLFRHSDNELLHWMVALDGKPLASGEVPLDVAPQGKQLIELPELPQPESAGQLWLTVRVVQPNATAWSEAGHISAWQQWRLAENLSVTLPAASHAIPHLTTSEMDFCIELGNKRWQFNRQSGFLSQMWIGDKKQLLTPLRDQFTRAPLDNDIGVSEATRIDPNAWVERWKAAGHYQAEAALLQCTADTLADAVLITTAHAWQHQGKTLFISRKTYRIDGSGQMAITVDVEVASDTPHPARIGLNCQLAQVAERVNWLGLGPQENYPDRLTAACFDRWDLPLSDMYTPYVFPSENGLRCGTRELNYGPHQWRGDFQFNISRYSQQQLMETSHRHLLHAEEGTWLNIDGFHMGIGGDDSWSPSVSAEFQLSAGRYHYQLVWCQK
Sequence of Cytochrome P450 2C9 (P11712 whole entry): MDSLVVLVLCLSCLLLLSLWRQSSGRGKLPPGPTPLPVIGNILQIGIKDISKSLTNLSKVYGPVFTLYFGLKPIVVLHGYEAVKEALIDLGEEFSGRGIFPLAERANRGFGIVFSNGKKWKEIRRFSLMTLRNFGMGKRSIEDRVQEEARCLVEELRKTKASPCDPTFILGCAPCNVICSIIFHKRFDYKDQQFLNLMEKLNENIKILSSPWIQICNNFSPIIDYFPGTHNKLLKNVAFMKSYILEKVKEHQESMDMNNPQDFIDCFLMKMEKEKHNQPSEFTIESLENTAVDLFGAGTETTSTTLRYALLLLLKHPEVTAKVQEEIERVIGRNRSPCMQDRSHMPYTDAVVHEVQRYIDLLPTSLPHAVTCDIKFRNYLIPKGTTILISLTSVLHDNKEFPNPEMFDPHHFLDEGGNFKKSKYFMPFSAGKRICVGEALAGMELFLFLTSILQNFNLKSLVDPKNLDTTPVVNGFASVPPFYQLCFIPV
Sequence of Cytochrome P450 2D6 (P10635 whole entry): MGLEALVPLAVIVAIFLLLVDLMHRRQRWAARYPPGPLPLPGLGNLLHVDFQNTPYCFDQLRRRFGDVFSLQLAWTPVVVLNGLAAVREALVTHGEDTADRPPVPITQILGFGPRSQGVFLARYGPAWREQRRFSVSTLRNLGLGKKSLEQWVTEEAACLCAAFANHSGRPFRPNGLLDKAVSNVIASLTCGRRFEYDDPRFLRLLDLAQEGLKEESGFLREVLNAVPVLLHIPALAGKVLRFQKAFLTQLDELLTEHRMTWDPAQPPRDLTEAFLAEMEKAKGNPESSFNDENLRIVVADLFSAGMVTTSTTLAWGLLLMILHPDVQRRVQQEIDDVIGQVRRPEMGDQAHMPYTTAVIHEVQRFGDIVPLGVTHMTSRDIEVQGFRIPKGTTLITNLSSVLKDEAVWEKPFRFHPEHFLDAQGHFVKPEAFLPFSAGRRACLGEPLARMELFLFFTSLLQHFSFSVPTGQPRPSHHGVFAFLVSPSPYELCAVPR

CCOc1ccc(C(c2c(C)n[nH]c2O)c2c(C)n[nH]c2O)cc1OC
AC50 [1]: 0.386 µM (active) | IC50 [2]: 43.6 µM (active) | EC50 (Protein RecA): 0.309 µM (active) | IC50 [3]: 32.9 µM (active)

O=C(CCCC(=O)OCC(=O)c1ccc(Cl)cc1Cl)Nc1cc(C(F)(F)F)ccc1Cl
AC50 (Cytochrome P450 2C9): inconclusive | AC50 (Cytochrome P450 2D6): 12.6 µM (inconclusive) | IC50 [4]: > 40 µM (not active) | EC50 (Beta-galactosidase): > 40 µM (inactive)

O=C(COC(=O)/C=C/c1ccc(OC(F)F)cc1)Nc1ccc(S(=O)(=O)N2CCCC2)cc1
IC50 [5]: > 69.5 µM (inactive) | IC50 [6]: > 69.5 µM (inactive)

CC(C)(C)c1ccc(C(=O)NNc2cc(N3CCCCC3)nc(N3CCCCC3)n2)cc1
EC50 [7]: > 60 µM (not active) | CC50 [8]: > 40 µM (active) | EC50 [9]: 1.7 µM (active) | IC50 [2]: 0.384 µM (active) | IC50 [3]: 0.796 µM (active) | IC50 [10]: 3.59 µM (active)

Cc1cnc(C(=O)OC(C)C(=O)Nc2ccc3c(c2)OCCO3)cn1 (configuration not stated)
IC50 [5]: > 69.5 µM (inactive) | IC50 [6]: > 69.5 µM (inactive)

COc1ccc(NC(=O)Nc2ccc3c(c2)C(=O)N([C@@H](C)CO)C[C@@H](C)[C@H](CN(C)Cc2ccc(C(F)(F)F)cc2)O3)cc1
AC50 (Paired box protein Pax-8): 22 µM (active) | AC50 [11]: 41.7 µM (active)

COc1cccc(S(=O)(=O)N(C)C[C@@H]2Oc3cc(C#CCC(C)C)ccc3S(=O)(=O)N([C@H](C)CO)C[C@H]2C)c1
AC50 [12]: 36.9 µM (active) | AC50 [13]: 8.75 µM (active) | AC50 [14]: 36.2 µM (active)

O=C(CCN1CCCCC1)N[C@H]1CC[C@H](CCn2cc(-c3ccccc3)nn2)O[C@@H]1CO
AC50 [12]: 40.8 µM (active)

C[C@@H]1CCCCO[C@@H](CN(C)Cc2ccc(C(F)(F)F)cc2)[C@H](C)CN([C@H](C)CO)C(=O)c2cc(NS(=O)(=O)c3ccccc3)ccc2O1
AC50 [15]: 41.9 µM (active) | AC50 (Paired box protein Pax-8): 6.14 µM (active) | AC50 [16]: 34 µM (active)

COc1cccc(CC(=O)N(Cc2ccccc2)c2ccccc2C(=O)Nc2cc(OC)ccc2OC)c1
IC50 [5]: > 69.5 µM (inactive) | IC50 [6]: > 69.5 µM (inactive)

O=C(CSc1cc(Cl)ccc1Cl)N/N=C/c1ccc[nH]1
IC50 [17]: 15 µM (inactive)

COC(=O)[C@H](CC(C)C)N1Cc2nnn(Cc3ccc(C)cc3)c2-c2cc(F)ccc2S1(=O)=O
IC50 [5]: > 69.5 µM (inactive) | IC50 [6]: > 69.5 µM (inactive)
